We go through 2 molecules from publication PMC10222203 (Pharmaceutics, 2023).

Data set [1] deals with dynamin. Also noted: method as in PMID 16740485, PMID 24491918. The following applies: cited from earlier work.
Data set [2] deals with brain-like endothelial cells (BLECs). Description: in vitro. The following applies: control, absence of peptide (0 nM). As for the experimental part: The in vitro BBB model, consisting of CD34^+ endothelial cells (ECs) derived from hematopoietic stem cells in co-culture with bovine brain pericytes, was established as described by Cecchelli et al.. Written and informed consent was obtained for the collection of human umbilical cord blood, in compliance with French legislation. […] All experiments were carried out in line with the authorized protocol.
These isolated CD34+ cells were cultured in EGM-2, supplemented with 20% (v:v) FBS and 50 ng/mL vascular endothelial growth factor on 1% (w:v) gelatine-coated 24-well plates (2 × 10^5 cells/well). After 15–20 days, ECs are seen in the culture dish. For each experiment, the cells were expanded in 1% (w:v) gelatine-coated T75 flasks (BD Biosciences, Le Pont-de-Claix, France) in EGM-2. Bovine brain pericytes were isolated and characterized as described by Vandenhaute et al.. Sub-clones were cultured in Dulbecco’s Modified Eagle’s Medium supplemented with 20% (v:v) FBS, 2 mM L-glutamine, 50 µg/mL gentamycin, and 1 ng/mL basic fibroblast growth factor. At confluency, 5 × 10^4 cells were seeded in ECM-5 with 5% (v:v) FBS, 50 µg/mL gentamycin, and 0.5% endothelial cell growth factor in gelatine-coated 12-well plates (Costar, Corning Inc., New York, NY, USA). CD34^+-derived ECs were seeded at 8 × 10^4 cells per Matrigel-coated (BD Biosciences) insert (3401, Corning Inc., NY, USA) and put in co-culture with the bovine brain pericytes, with the pericytes at the bottom of the well, for 6 days to achieve brain-like endothelial cell (BLEC) characteristics (Figure 4b).
At the beginning of the permeability experiments, inserts with BLEC monolayers were transferred to new abluminal (receiver) compartments previously filled with 1.5 mL of RH buffer, and 500 µL of the compounds dissolved in RH buffer, with the addition of the paracellular marker sodium fluorescein (NaFlu), were added to the luminal (donor) compartment. After 3 h of incubation at 37 °C, with a shaking velocity of 60 rpm, aliquots were taken from the donor and receiver compartment. The BLEC monolayers were washed twice with cold RH buffer and lysed with RLT Lysis buffer. The samples were kept at −20 °C pending analysis in low-binding tubes.
An increase in the permeability to NaFlu in the presence of the peptide can indicate an increase in paracellular leakage and consequent loss of barrier integrity. To evaluate the ability of test compounds to cross Matrigel-coated filters without cells and to control for the adsorption to plastics and/or Matrigel, the NaFlu and peptide’s permeability over inserts without cells were also assessed. Mass balance (M.B%) was calculated from the amount of compound recovered in both compartments at the end of the experiment divided by the total amount added to the donor compartment at the start of the experiment.
Samples from both compartments as well as the lysed endothelial cells were analysed for fluorescence using a Synergy H1 (Biotek) set to quantify NaFlu (wavelengths Excitation 490 nm and Emission 525 nm) and with UPLC-MS/MS to assess the permeability and cellular uptake of the peptides. All experiments were performed in triplicate (n = 3 independent experiments per concentration and cCPPs).
Papp is the apparent permeability, J is the rate of appearance of the compound in the receiver compartment (amount/sec), and C0 is the concentration in the donor compartment at the start of the experiment (amount/mL).

For `O=C(N/N=C/c1ccc(O)c(O)c1)c1cc2ccccc2cc1O` [Dynasore, dynasore], in data set [1] (50 µM), the “Decrease in dynamin activity” value was 70%. Moreover, the IC50 in data set [1] is 15 µM.

In the case of `O=C([O-])c1ccccc1-c1c2ccc(=O)cc-2oc2cc([O-])ccc12.[Na+].[Na+]` [sodium fluorescein, reference compound], the “Permeability (Pe) to sodium fluorescein, mean” value in data set [2] is given as 0,46 10‐3 cm/min.

In general, IC50 refers to the concentration that gives 50% inhibition.
